Patent US8969570B2, “Beta-lactamase inhibitors” (priority 2012, dated 2015)
Counter-ions that a name gives are not always drawn.

Legend:
Format in all cases: cell-based
Settings in all cases: β-lactam (CXA-101/Ceftolozane or ceftazidime) fixed at 4 μg/mL; compared with Avibactam (comparator compound CCC)
[1] = tested on: bacterial strains that express SHV-12 β-lactamase (isogenic E. coli strain); test: Synergy MIC (sMIC) assay, SHV-12 strain
Description: (§1) A set of β-lactamase expressing isogenic E. coli strains was constructed by cloning a β-lactamase gene into a customized derivative of pBR322 (GenBank Accession Number J01749) and transforming the engineered plasmids into E. coli. The NdeI restriction site within the plasmid backbone of pBR322 was removed to generate pBR322 ΔNdeI. The pBR322 ΔNdeI vector itself, minus the blaTEM-1 gene, was amplified using two primers: (1) pBR-Pbla 5′-[…]-3, SEQ ID 1, a primer with an engineered NdeI restriction site at the 3′ end of the blaTEM-1 promoter and (2) pBR-vec-1 5′-[…]-3′, SEQ ID 2, a primer with an engineered BamHI restriction site at the 3′ end of the blaTEM-1 open reading frame. The chloramphenicol resistance gene, cat, was generated by PCR amplification from pKD3 (GenBank Accession Number AY048742) using primers with an engineered NdeI restriction site at the 5′ end (Pbla-cat 5′-[…]-3′, SEQ ID 3) and an engineered BamHI restriction site at the 3′ end (Vec-1-cat 5′-[…]-3′, SEQ ID 4) of the resistance gene. The two PCR products, pBR322 ΔNdeI and cat were ligated together generating pBR-CBST (pBR322 ΔNdeI ΔTEM-1::cat Seq. ID 5) which retains both the pBR322 tetracycline resistance cassette, tetA, and the plasmid origin of replication but the blaTEM-1 gene was replaced by the cat gene.
(§2) Using this engineering strategy a number of plasmids producing β-lactamase genes from different classes (see below) were generated using synthetic genes with an engineered NdeI restriction site at the 5′ end and BamHI restriction site at the 3′ end of each gene (GenScript). Both the synthetic β-lactamase genes and cat gene were ligated into the NdeI/BamHI sites of the pBR322 ΔNdeI PCR product and transformed into electrocompetent E. coli ElectroMax DH10B (Invitrogen/Life Technologies). E. coli DH10B harboring the recombinant plasmids were selected on LB agar (supplemented with 25 μg/mL tetracycline) and single isolated colonies were then inoculated into 5 mL LB media (supplemented with 25 μg/mL tetracycline), and incubated at 37° C. with aeration (250 rpm) for 18 hrs. The cultures were frozen back at −80° C. in 20% glycerol. The DNA sequence of the cloned β-lactamase genes was confirmed. The β-lactamase gene expression in the recombinant E. coli strains was driven by the blaTEM-1 promoter in the pBR-CBST plasmid and was characterized by MIC profiling of the E. coli recombinant strains against comparator β-lactam/BLI combinations in broth microdilution assay.
(§3) The synergy MIC (sMIC) assay determines the concentration of the BLI required to potentiate the activity of a fixed concentration of a β-lactam antibiotic against β-lactamase producing bacterial strains. The experimental protocol was performed according to Clinical and Laboratory Standards Institute (CLSI) guidelines with modifications as described below (CLSI guidelines can be derived from the CLSI document M07-A9 published in January 2012: “Methods for Dilution Antimicrobial Susceptibility Tests for Bacteria That Grow Aerobically; Approved Standard-Ninth Edition”). The assay is set-up by serially diluting the BLI across 11 of the 12 wells in each row of a 96-well broth microdilution assay plate, adding the β-lactam at a fixed concentration to all wells in the assay plate, inoculating the assay plate with bacterial strains, and determining the lowest concentration of BLI required to inhibit overnight bacterial growth.
(§4) To prepare for MIC testing, frozen glycerol stocks of laboratory engineered, isogenic E. coli strains, which contain cloned β-lactamase expressing plasmids were used to streak for isolated colonies on rich, selective LB agar supplemented with 25 μg/mL tetracycline to maintain the plasmid. All strains were incubated at 37° C. for 18-24 hrs.
(§5) On the day of testing, primary cultures were started by scraping off 5-10 colonies from the tetracycline supplemented LB plates containing engineered strains. […]

[2] = tested on: bacterial strains that express KPC β-lactamase (isogenic E. coli strain KPC-2); test: Synergy MIC (sMIC) assay, KPC strain
Description: as §1, §2, §3, §4, §5

[3] = tested on: bacterial strains that express OXA-15 β-lactamase (isogenic E. coli strain); test: Synergy MIC (sMIC) assay, OXA-15 strain
Description: as §1, §2, §3, §4, §5

[4] = tested on: bacterial strains that express P99 β-lactamase (isogenic E. coli strain P99 AmpC); test: Synergy MIC (sMIC) assay, P99 AmpC strain
Description: as §1, §2, §3, §4, §5

[5] = tested on: bacterial strains that express CTX-M-15 β-lactamase (isogenic E. coli strain); test: Synergy MIC (sMIC) assay, CTX-M-15 strain
Description: as §1, with “cat gene. […]” for “cat gene.”

Cc1nnc([C@@H]2CC[C@@H]3CN2C(=O)N3OS(=O)(=O)O)o1 [Compound 200, (2S,5R)-2-(5-methyl-1,3,4-oxadiazol-2-yl)-7-oxo-1,6-diazabicyclo[3.2.1]octan-6-yl hydrogen sulfate]
activity against bacterial strains that express SHV-12 β-lactamase relative to Avibactam (sMIC) [1]: as active as Avibactam | activity against bacterial strains that express KPC β-lactamase relative to Avibactam (sMIC) [2]: as active or more active than Avibactam | activity against bacterial strains that express OXA-15 β-lactamase relative to Avibactam (sMIC) [3]: more active than Avibactam

O=C1N2C[C@@H](CC[C@H]2c2ncns2)N1OS(=O)(=O)O [Compound 500, (2S,5R)-7-oxo-2-(1,2,4-thiadiazol-5-yl)-1,6-diazabicyclo[3.2.1]octan-6-yl hydrogen sulfate]
activity against bacterial strains that express P99 β-lactamase relative to Avibactam (sMIC) [4]: as active as Avibactam

CCOC(=O)c1noc([C@@H]2CC[C@@H]3CN2C(=O)N3OS(=O)(=O)O)n1 [Compound 402, ethyl 5-((2S,5R)-7-oxo-6-(sulfooxy)-1,6-diazabicyclo[3.2.1]octan-2-yl)-1,2,4-oxadiazole-3-carboxylate]
activity against bacterial strains that express SHV-12 β-lactamase relative to Avibactam (sMIC) [1]: as active as Avibactam

CNc1nnc([C@@H]2CC[C@@H]3CN2C(=O)N3OS(=O)(=O)O)o1 [Compound 203, (2S,5R)-2-(5-(methylamino)-1,3,4-oxadiazol-2-yl)-7-oxo-1,6-diazabicyclo[3.2.1]octan-6-yl hydrogen sulfate]
activity against bacterial strains that express KPC β-lactamase relative to Avibactam (sMIC) [2]: as active or more active than Avibactam

O=C1N2C[C@@H](CC[C@H]2c2nnc(N3CCNCC3)s2)N1OS(=O)(=O)O [Compound 302, (2S,5R)-7-oxo-2-(5-(piperazin-1-yl)-1,3,4-thiadiazol-2-yl)-1,6-diazabicyclo[3.2.1]octan-6-yl hydrogen sulfate]
activity against bacterial strains that express SHV-12 β-lactamase relative to Avibactam (sMIC) [1]: as active as Avibactam | activity against bacterial strains that express KPC β-lactamase relative to Avibactam (sMIC) [2]: as active or more active than Avibactam | activity against bacterial strains that express OXA-15 β-lactamase relative to Avibactam (sMIC) [3]: more active than Avibactam

CCc1nnc([C@@H]2CC[C@@H]3CN2C(=O)N3OS(=O)(=O)O)o1 [Compound 201, (2S,5R)-2-(5-ethyl-1,3,4-oxadiazol-2-yl)-7-oxo-1,6-diazabicyclo[3.2.1]octan-6-yl hydrogen sulfate]
activity against bacterial strains that express KPC β-lactamase relative to Avibactam (sMIC) [2]: as active or more active than Avibactam | activity against bacterial strains that express OXA-15 β-lactamase relative to Avibactam (sMIC) [3]: more active than Avibactam

O=C1N2C[C@@H](CC[C@H]2c2ccon2)N1OS(=O)(=O)O [Compound 101, (2S,5R)-2-(isoxazol-3-yl)-7-oxo-1,6-diazabicyclo[3.2.1]octan-6-yl hydrogen sulfate]
activity against bacterial strains that express P99 β-lactamase relative to Avibactam (sMIC) [4]: as active as Avibactam | activity against bacterial strains that express CTX-M-15 β-lactamase relative to Avibactam (sMIC) [5]: as active as Avibactam | activity against bacterial strains that express KPC β-lactamase relative to Avibactam (sMIC) [2]: as active or more active than Avibactam

NCc1nnc([C@@H]2CC[C@@H]3CN2C(=O)N3OS(=O)(=O)O)s1 [Compound 301, (2S,5R)-2-(5-(aminomethyl)-1,3,4-thiadiazol-2-yl)-7-oxo-1,6-diazabicyclo[3.2.1]octan-6-yl hydrogen sulfate]
activity against bacterial strains that express P99 β-lactamase relative to Avibactam (sMIC) [4]: as active as Avibactam | activity against bacterial strains that express SHV-12 β-lactamase relative to Avibactam (sMIC) [1]: as active as Avibactam | activity against bacterial strains that express KPC β-lactamase relative to Avibactam (sMIC) [2]: as active or more active than Avibactam | activity against bacterial strains that express OXA-15 β-lactamase relative to Avibactam (sMIC) [3]: more active than Avibactam

N#Cc1cc([C@@H]2CC[C@@H]3CN2C(=O)N3OS(=O)(=O)O)no1 [Compound 102, (2S,5R)-2-(5-cyanoisoxazol-3-yl)-7-oxo-1,6-diazabicyclo[3.2.1]octan-6-yl hydrogen sulfate]
activity against bacterial strains that express KPC β-lactamase relative to Avibactam (sMIC) [2]: as active or more active than Avibactam

NC(=O)c1cc([C@@H]2CC[C@@H]3CN2C(=O)N3OS(=O)(=O)O)no1 [Compound 103, (2S,5R)-2-(5-carbamoylisoxazol-3-yl)-7-oxo-1,6-diazabicyclo[3.2.1]octan-6-yl hydrogen sulfate]
activity against bacterial strains that express SHV-12 β-lactamase relative to Avibactam (sMIC) [1]: as active as Avibactam | activity against bacterial strains that express KPC β-lactamase relative to Avibactam (sMIC) [2]: as active or more active than Avibactam

O=C1N2C[C@@H](CC[C@H]2c2nnc(C3CNCCO3)o2)N1OS(=O)(=O)O (stereo partly drawn) [Compound 206, (2S,5R)-2-(5-(morpholin-2-yl)-1,3,4-oxadiazol-2-yl)-7-oxo-1,6-diazabicyclo[3.2.1]octan-6-yl hydrogen sulfate]
activity against bacterial strains that express P99 β-lactamase relative to Avibactam (sMIC) [4]: as active as Avibactam | activity against bacterial strains that express KPC β-lactamase relative to Avibactam (sMIC) [2]: as active or more active than Avibactam | activity against bacterial strains that express OXA-15 β-lactamase relative to Avibactam (sMIC) [3]: more active than Avibactam

CN1CCC(c2nnc([C@@H]3CC[C@@H]4CN3C(=O)N4OS(=O)(=O)O)o2)CC1 [Compound 204, (2S,5R)-2-(5-(1-methylpiperidin-4-yl)-1,3,4-oxadiazol-2-yl)-7-oxo-1,6-diazabicyclo[3.2.1]octan-6-yl hydrogen sulfate]
activity against bacterial strains that express P99 β-lactamase relative to Avibactam (sMIC) [4]: as active as Avibactam | activity against bacterial strains that express KPC β-lactamase relative to Avibactam (sMIC) [2]: as active or more active than Avibactam | activity against bacterial strains that express OXA-15 β-lactamase relative to Avibactam (sMIC) [3]: more active than Avibactam

CN1CCN(c2nnc([C@@H]3CC[C@@H]4CN3C(=O)N4OS(=O)(=O)O)o2)CC1 [Compound 205, (2S,5R)-2-(5-(4-methylpiperazin-1-yl)-1,3,4-oxadiazol-2-yl)-7-oxo-1,6-diazabicyclo[3.2.1]octan-6-yl hydrogen sulfate]
activity against bacterial strains that express KPC β-lactamase relative to Avibactam (sMIC) [2]: as active or more active than Avibactam | activity against bacterial strains that express OXA-15 β-lactamase relative to Avibactam (sMIC) [3]: more active than Avibactam

NC(=O)c1noc([C@@H]2CC[C@@H]3CN2C(=O)N3OS(=O)(=O)O)n1 [Compound 401, (2S,5R)-2-(3-carbamoyl-1,2,4-oxadiazol-5-yl)-7-oxo-1,6-diazabicyclo[3.2.1]octan-6-yl hydrogen sulfate]
activity against bacterial strains that express SHV-12 β-lactamase relative to Avibactam (sMIC) [1]: as active as Avibactam | activity against bacterial strains that express KPC β-lactamase relative to Avibactam (sMIC) [2]: as active or more active than Avibactam
